# Biological target: T1, Alpha-1D adrenergic receptor (Rattus norvegicus) (UniProt P23944)
# T1 sequence (whole entry): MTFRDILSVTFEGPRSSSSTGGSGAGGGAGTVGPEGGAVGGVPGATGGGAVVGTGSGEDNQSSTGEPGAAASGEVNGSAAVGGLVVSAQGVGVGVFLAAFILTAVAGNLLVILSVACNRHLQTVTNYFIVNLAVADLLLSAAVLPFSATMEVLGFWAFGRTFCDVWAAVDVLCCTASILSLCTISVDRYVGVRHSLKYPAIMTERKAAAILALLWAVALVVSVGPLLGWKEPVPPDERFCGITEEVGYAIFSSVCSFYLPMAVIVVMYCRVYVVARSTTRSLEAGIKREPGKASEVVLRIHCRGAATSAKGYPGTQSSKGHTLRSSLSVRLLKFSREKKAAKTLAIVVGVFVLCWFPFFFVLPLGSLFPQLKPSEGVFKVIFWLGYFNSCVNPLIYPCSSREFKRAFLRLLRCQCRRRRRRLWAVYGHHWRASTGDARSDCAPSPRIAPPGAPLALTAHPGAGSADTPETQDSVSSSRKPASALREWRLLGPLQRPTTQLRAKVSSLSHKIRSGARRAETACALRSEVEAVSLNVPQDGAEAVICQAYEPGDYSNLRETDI
# Experiment: Vasodilator activity assessed as ability to relax phenylephrine-induced contraction of Wistar rat aortic strips at 30 uM in presence of 1 uM ODQ
# Format: functional, tissue-based
# Parameters: scale not given: the % may be the effect or the level left
# Conditions: Aorta; call rule not given here
row,SMILES,Activity
1,CC(C)(C)c1cc(CC(CO[N+](=O)[O-])[N+](=O)[O-])cc(C(C)(C)C)c1O (stereo unspecified),24%

# Test system: Radical scavenging activity
# Experiment: Antioxidant activity assessed as inhibition of TBARS production in ferrous salt/ascorbate-induced lipid peroxidation in Wistar rat liver microsomal membrane at 1 mM
# Format: functional, microsomes
# Conditions: not given
row,SMILES,IC50
1,NC(=O)c1c(CO)no[n+]1[O-],Not Active
2,CN(C)Cc1no[n+]([O-])c1C(N)=O,Not Active

# Test system: Radical scavenging activity
# Experiment: Antioxidant activity assessed as inhibition of TBARS production in ferrous salt/ascorbate-induced lipid peroxidation in Wistar rat liver microsomal membrane
# Format: functional, microsomes
# Conditions: not given
row,SMILES,IC50
1,Cc1c(C)c2c(c(C)c1O)CCC(C)(COCCCO[N+](=O)[O-])O2 (stereo unspecified),150 nM
2,CC(C)(C)c1cc(CCCO[N+](=O)[O-])cc(C(C)(C)C)c1O,2000 nM
3,Cc1ccc(O)cc1 [p-CRESOL],290000 nM
4,O=[N+]([O-])OCCCc1ccc(O)cc1,143000 nM
5,CC(C)(C)c1cc(CCCOc2no[n+]([O-])c2S(=O)(=O)c2ccccc2)cc(C(C)(C)C)c1O,2000 nM
6,COc1cc(C)cc(OC)c1O,18000 nM
7,CC(C)(C)c1cc(CC(CO[N+](=O)[O-])[N+](=O)[O-])cc(C(C)(C)C)c1O (stereo unspecified),2600 nM
8,CN(CCCc1cc(C(C)(C)C)c(O)c(C(C)(C)C)c1)Cc1no[n+]([O-])c1C(N)=O,1200 nM
9,O=S(=O)(c1ccccc1)c1c(OCCCc2ccc(O)cc2)no[n+]1[O-],47000 nM
10,CCOc1no[n+]([O-])c1S(=O)(=O)c1ccccc1,110000 nM
11,COc1cc(CCCOc2no[n+]([O-])c2S(=O)(=O)c2ccccc2)cc(OC)c1O,3400 nM
12,Cc1cc(C(C)(C)C)c(O)c(C(C)(C)C)c1 [BUTYLATED HYDROXYTOLUENE],1700 nM
13,COc1cc(CCCO[N+](=O)[O-])cc(OC)c1O,5900 nM
14,O=[N+]([O-])OCC(Cc1ccc(O)cc1)[N+](=O)[O-] (stereo unspecified),185000 nM
15,Cc1c(C)c2c(c(C)c1O)CCC(C)(COc1no[n+]([O-])c1S(=O)(=O)c1ccccc1)O2 (stereo unspecified),490 nM
16,Cc1c(C)c2c(c(C)c1O)CCC(C)(CN(C)Cc1no[n+]([O-])c1C(N)=O)O2 (stereo unspecified),140 nM
17,Cc1c(C)c2c(c(C)c1O)CCC(C)(C)O2 [APC-100],170 nM
18,COc1cc(CC(CO[N+](=O)[O-])[N+](=O)[O-])cc(OC)c1O (stereo unspecified),5400 nM
